Results on 23 molecules are retold here after patent publication US20260297070A1, “CYCLIC [COMPOUND LEFT OUT] WRN INHIBITORS” (Nimbus Wadjet, Inc., priority 2023, published 2026).

This test concerns the target T1, human Werner helicase (WRN-BV08, Uniprot Q14191, amino acids 517-1235 with L1074F point mutation) (Homo sapiens, UniProt Q14191, L1074F).
T1 construct: Uniprot Q14191, amino acids 517-1235 with L1074F point mutation; TEV-cleavable 8×His (C, cleaved yes); made in house; host or cells: Sf9 insect cells (baculovirus)
Description: WRN (BV08) ADP-Glo Assay. The format is biochemical. Particulars: 0.15 nM WRN, 5 μM ATP, 0.1 nM DNA duplex, 15 min preincubation, 60 min at 25° C., pH 7.5, 1% DMSO; read-out: ADP-Glo_hWRN_IC50. The method in brief:
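ADP-Glo luminescence read-out of ATP hydrolysis. Conditions: 0.15 nM WRN, 5 μM ATP, 0.1 nM DNA duplex, 1% DMSO, 60 min at 25 °C after 15 min compound preincubation. Max/min controls were DMSO and 20 μM NSC-617145; IC50 from four-parameter fit.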

T1 sequence (Q14191 with tags, fused parts or gaps L1074F limits assumed): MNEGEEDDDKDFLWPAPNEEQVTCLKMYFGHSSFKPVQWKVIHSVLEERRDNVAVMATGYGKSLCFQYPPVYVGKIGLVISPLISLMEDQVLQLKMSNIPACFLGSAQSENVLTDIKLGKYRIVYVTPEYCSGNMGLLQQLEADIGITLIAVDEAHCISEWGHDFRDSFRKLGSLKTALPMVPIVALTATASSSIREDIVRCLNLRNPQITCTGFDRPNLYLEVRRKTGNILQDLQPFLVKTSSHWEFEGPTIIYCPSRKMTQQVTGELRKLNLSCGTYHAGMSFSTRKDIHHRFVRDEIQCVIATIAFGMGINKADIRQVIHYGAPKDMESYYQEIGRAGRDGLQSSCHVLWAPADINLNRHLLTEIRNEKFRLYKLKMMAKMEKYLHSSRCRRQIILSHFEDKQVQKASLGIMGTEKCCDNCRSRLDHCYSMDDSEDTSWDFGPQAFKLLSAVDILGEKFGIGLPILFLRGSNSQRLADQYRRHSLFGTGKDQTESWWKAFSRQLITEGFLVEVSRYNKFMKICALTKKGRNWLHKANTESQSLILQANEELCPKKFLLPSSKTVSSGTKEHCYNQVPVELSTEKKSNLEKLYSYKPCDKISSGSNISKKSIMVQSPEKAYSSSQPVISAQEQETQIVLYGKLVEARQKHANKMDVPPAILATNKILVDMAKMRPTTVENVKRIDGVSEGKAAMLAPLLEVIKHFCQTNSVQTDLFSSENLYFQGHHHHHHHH

In the case of `O=C(Cc1cc(-c2ccccc2)on1)N(Cc1ccncc1)C1C=CS(=O)(=O)C1` (centres unmarked) [I-354, N-(1,1-dioxo-2,3-dihydro-1lambda6-thiophen-3-yl)-2-(5-phenyl-1,2-oxazol-3-yl)-N-[(pyridin-4-yl)methyl]acetamide], the IC50 was in the range of 10 to 50 µM.
For the molecule `O=C(Cc1ccc(Oc2ccccc2)cc1)N(Cc1ccncc1)C1C=CS(=O)(=O)C1` (centres unmarked) [I-503, N-(1,1-dioxo-2,3-dihydro-1lambda6-thiophen-3-yl)-2-(4-phenoxyphenyl)-N-[(pyridin-4-yl)methyl]acetamide], the IC50 was > 50 µM.
Consider `Cc1cccn1-c1ccc(CC(=O)N(Cc2cncnc2)C2C=CS(=O)(=O)C2)c(F)c1` (centres unmarked) [I-364, N-(1,1-dioxo-2,3-dihydro-1lambda6-thiophen-3-yl)-2-[2-fluoro-4-(2-methyl-1H-pyrrol-1-yl)phenyl]-N-[(pyrimidin-5-yl)methyl]acetamide], for which the IC50 lay in the range of 10 to 50 µM.
Then `CC1=CC(N(Cc2ccccc2)C(=O)Cc2ccc(-n3cccc3)cc2)CS1(=O)=O` (centres unmarked) [I-566, 2-(4-(1H-pyrrol-1-yl)phenyl)-N-benzyl-N-(5-methyl-1,1-dioxido-2,3-dihydrothiophen-3-yl)acetamide], with > 50 µM.
Next, `O=C(c1ccc(-c2ccccc2)cn1)N(Cc1ccccc1)C1C=CS(=O)(=O)C1` (centres unmarked) [I-487, N-benzyl-N-(1,1-dioxo-2,3-dihydro-1lambda6-thiophen-3-yl)-5-phenylpyridine-2-carboxamide]: > 50 µM.
For `COc1cc(CN(C(=O)Cn2cc(-c3ccc(F)cc3)cn2)C2C=CS(=O)(=O)C2)ccn1` (centres unmarked) [I-68, N-(1,1-dioxo-2,3-dihydro-1lambda6-thiophen-3-yl)-2-[4-(4-fluorophenyl)-1H-pyrazol-1-yl]-N-[(2-methoxypyridin-4-yl)methyl]acetamide], the IC50 is < 0.5 µM.
Turning to `CC(C)(O)c1cc(CN(C(=O)C(OCC2CC2)c2ccc(-c3ccc(F)c(F)c3)cc2F)[C@@H]2C=CS(=O)(=O)C2)ccn1` (single isomer, unassigned) [I-815], the IC50 is < 0.5 µM.
`O=C(Cc1ccc(-n2cccc2)cc1)N(Cc1ccnc(Cl)c1)C1C=CS(=O)(=O)C1` (centres unmarked) [I-160, N-[(2-chloropyridin-4-yl)methyl]-N-(1,1-dioxo-2,3-dihydro-1lambda6-thiophen-3-yl)-2-[4-(1H-pyrrol-1-yl)phenyl]acetamide]: the IC50 fell in the range of 0.5 to 5 µM.
Then `O=C(Cc1ccc(-c2cccc(F)c2)cc1)N(Cc1ccncc1)C1C=CS(=O)(=O)C1` (centres unmarked) [I-188, N-(1,1-dioxo-2,3-dihydro-1lambda6-thiophen-3-yl)-2-{3′-fluoro-[1,1′-biphenyl]-4-yl}-N-[(pyridin-4-yl)methyl]acetamide], with 0.5 to 5 µM; and `CN(C)C(=O)C(C(=O)N(Cc1ccnc(C(C)(C)O)c1)C1C=CS(=O)(=O)C1)c1ccc(-c2ccc(F)cc2)cc1` (single isomer, unassigned) [I-271, (2R**)-N-[(3R*)-1,1-dioxo-2,3-dihydro-1lambda6-thiophen-3-yl]-2-{4′-fluoro-[1,1′-biphenyl]-4-yl}-N-{[2-(2-hydroxypropan-2-yl)pyridin-4-yl]methyl}-N′,N′-dimethylpropanediamide], with 5 to 10 µM.
Then `O=C(Cc1ccc(-n2cccc2)cc1)N(Cc1noc(C2CC2)n1)C1C=CS(=O)(=O)C1` (centres unmarked) [I-342, N-[(5-cyclopropyl-1,2,4-oxadiazol-3-yl)methyl]-N-(1,1-dioxo-2,3-dihydro-1lambda6-thiophen-3-yl)-2-[4-(1H-pyrrol-1-yl)phenyl]acetamide], with 10 to 50 µM; and `COc1cc(CN(C(=O)Cc2ccc(-c3ccc(F)cc3)cc2Cl)C2C=CS(=O)(=O)C2)ccn1` (centres unmarked) [I-136, 2-{3-chloro-4′-fluoro-[1,1′-biphenyl]-4-yl}-N-(1,1-dioxo-2,3-dihydro-1lambda6-thiophen-3-yl)-N-[(2-methoxypyridin-4-yl)methyl]acetamide], with 0.5 to 5 µM; and `N#Cc1ccc(CC(=O)N(Cc2ccncc2)C2C=CS(=O)(=O)C2)cc1` (centres unmarked) [I-513, 2-(4-cyanophenyl)-N-(1,1-dioxo-2,3-dihydro-1lambda6-thiophen-3-yl)-N-[(pyridin-4-yl)methyl]acetamide], with > 50 µM.
For the molecule `CC(C)(C)c1ccc(CC(=O)N(Cc2ccncc2)C2C=CS(=O)(=O)C2)cc1` (centres unmarked) [I-310, 2-(4-tert-butylphenyl)-N-(1,1-dioxo-2,3-dihydro-1lambda6-thiophen-3-yl)-N-[(pyridin-4-yl)methyl]acetamide], the IC50 lay in the range of 10 to 50 µM.
Then `COc1cc(CN(C(=O)Cn2cc(-c3ccccc3F)cn2)C2C=CS(=O)(=O)C2)ccn1` (centres unmarked) [I-134, N-(1,1-dioxo-2,3-dihydro-1lambda6-thiophen-3-yl)-2-[4-(2-fluorophenyl)-1H-pyrazol-1-yl]-N-[(2-methoxypyridin-4-yl)methyl]acetamide], with 0.5 to 5 µM; and `O=C(Cc1c[nH]c2cc(Cl)ccc12)N(Cc1ccncc1)C1C=CS(=O)(=O)C1` (centres unmarked) [I-417, 2-(6-chloro-1H-indol-3-yl)-N-(1,1-dioxo-2,3-dihydro-1lambda6-thiophen-3-yl)-N-[(pyridin-4-yl)methyl]acetamide], with > 50 µM.
Next, `O=C(Cc1ccc(-n2cccc2)cc1)N(CC12CC(C1)C2)C1C=CS(=O)(=O)C1` (centres unmarked) [I-540, N-({bicyclo[1.1.1]pentan-1-yl}methyl)-N-(1,1-dioxo-2,3-dihydro-1lambda6-thiophen-3-yl)-2-[4-(1H-pyrrol-1-yl)phenyl]acetamide]: > 50 µM.
Next, `CN1CCc2c(ccn2-c2ccc(CC(=O)N(Cc3ccccc3)C3C=CS(=O)(=O)C3)cc2)C1` (centres unmarked) [I-456, N-benzyl-N-(1,1-dioxo-2,3-dihydro-1lambda6-thiophen-3-yl)-2-(4-{5-methyl-1H,4H,5H,6H,7H-pyrrolo[3,2-c]pyridin-1-yl}phenyl)acetamide]: > 50 µM.
Consider `CC(C)(O)c1cc(CN(C(=O)Cc2ccc(-n3cccc3)cc2F)C2C=CS(=O)(=O)C2)ccn1` (centres unmarked) [I-61, N-(1,1-dioxo-2,3-dihydro-1lambda6-thiophen-3-yl)-2-[2-fluoro-4-(1H-pyrrol-1-yl)phenyl]-N-{[2-(2-hydroxypropan-2-yl)pyridin-4-yl]methyl}acetamide], for which the IC50 is < 0.5 µM.
With `O=C(Cc1ccc(OC(F)F)cc1)N(Cc1ccncc1)C1C=CS(=O)(=O)C1` (centres unmarked) [I-331, 2-[4-(difluoromethoxy)phenyl]-N-(1,1-dioxo-2,3-dihydro-1lambda6-thiophen-3-yl)-N-[(pyridin-4-yl)methyl]acetamide], the IC50 was 10 to 50 µM.
With `CC(C)(O)c1cc(CN(C(=O)Cn2cc(-c3cc(F)c(F)c(F)c3)cn2)C2C=CS(=O)(=O)C2)ccn1` (single isomer, unassigned) [I-1], the IC50 is < 0.5 µM.
Then `COc1cc(C(C)N(C(=O)Cn2cc(-c3cc(F)c(F)c(F)c3)cn2)C2C=CS(=O)(=O)C2)ccn1` (centres unmarked) [I-820, N-(1,1-dioxo-2,3-dihydro-1lambda6-thiophen-3-yl)-N-[1-(2-methoxypyridin-4-yl)ethyl]-2-[4-(3,4,5-trifluorophenyl)-1H-pyrazol-1-yl]acetamide], with < 0.5 µM.
`COc1cc(CN(C(=O)Cc2ccc(C(C)(F)F)cc2)C2C=CS(=O)(=O)C2)ccn1` (centres unmarked) [I-117, 2-[4-(1,1-difluoroethyl)phenyl]-N-(1,1-dioxo-2,3-dihydro-1lambda6-thiophen-3-yl)-N-[(2-methoxypyridin-4-yl)methyl]acetamide]: the IC50 fell in the range of 0.5 to 5 µM.
